In patent US7737253B2, “Human cancer stem cell culture compositions comprising Erbb2 variants and methods of use thereof” (BresaGen, Inc., priority 2006, dated 2010):
pKd: −log10 of the molar value. Entries after “also recorded” stand apart in the source; their conditions may differ.

Assays:
BG01v cells = assay: Growth of BG01v cells in defined media with Erbb2 TK inhibitors; type: cell-based, human; conditions: absence of an exogenous Erbb2 activating growth factor
Description: This confirms that endogenous Erbb2 signaling is critical for the self-renewal of BG01v cells and represents a major difference between variant and normal hESCs.

ERBB2 (phospho-Y1248) = assay: Western blot of ERBB2 phospho-Y1248 in BG01 hESCs; type: cell-based, human; conditions: BG01 hESCs starved overnight
Protocol: BG01 hESCs were grown in DC-HAIF and then in media minus or starved of growth factors overnight, washed and then pulsed with either with heregulin (HRG) or not, or incubated with AG825 or not.
All BG01 HESC cultures were first grown in defined conditioned-heregulin/Activin A/IGF1/FGF (DC-HAIF) and then in media starved of growth factors overnight e.g., no heregulin, Activin A, IGF1 and/or FGF. […]
Cell lysates were prepared as per RTK blotting, separated by 4-20% gradient SDS-PAGE, blotted and detected with an immunoaffinity purified anti-ERBB2 (phospho-Y1248) antibody (Upstate/Millipore Cat#06229). The Erbb2 phospho-Y1248 antibody was used to quantify tyrosine phosphorylation of Erbb2 resulting from the interaction of heregulin with Erbb3 and/or ErbB4. […]

hESCs = assay: hESC proliferation and cell count after treatment with AG825; type: cell-based, human; conditions: for cell count: average of triplicate counts
Protocol: Based on the above studies described in Examples 13 and 14, further experiments were performed to quantify the number of hESCs and determine the level of inhibition of Erbb2 using AG825. […] Values reported were taken from an average of the triplicate (3) cell counts. The initial cell count was performed similarly. AG825 inhibited Erbb2 tyrosine kinase activity, thereby inhibiting cell signaling, and effectively reducing and inhibiting HESC proliferation and growth by about at least 1, 2 or 3 orders of magnitude.

Erbb2 tyrosine kinase = Erbb2 tyrosine kinase (Homo sapiens, UniProt P04626); conditions: cited from earlier work
[1] = system: Erbb2Δ16-expressing cells; conditions: unlike wild type Erbb2-transfectants; cited from earlier work
wild type Erbb2 = molecular target: T1, wild type Erbb2 (Homo sapiens, UniProt P04626); conditions: cited from earlier work
T1 construct: host or cells: transfected human cells (Castiglioni et al., 2006)

Erbb2Δ16 = molecular target: T2, Erbb2Δ16 (Homo sapiens, UniProt P04626, DEL634-649); conditions: cited from earlier work
T2 construct: host or cells: transfected human cells / Erbb2Δ16 transgene over-expression (Castiglioni et al., 2006)

Erbb2/4 heterodimers = Erbb2/4 heterodimers (Homo sapiens, UniProt Q15303); conditions: read-out: binding affinity; cited from earlier work
Erbb2/3 heterodimers = Erbb2/3 heterodimers (Homo sapiens, UniProt P21860); conditions: read-out: binding affinity; cited from earlier work
Erbb3 = molecular target: T3, Erbb3 (Homo sapiens, UniProt P21860); assay: Phospho-RTK antibody array, Erbb3 phosphorylation in BG01 and BG01v cells; type: cell-based; conditions: BG01 and BG01v cells starved overnight, then pulsed about 15 minutes with 10 ng/ml heregulin
T3 construct: endogenous in cells; host or cells: BG01 and BG01v human embryonic stem cells
Protocol: (§1) (A) BG01 and BG01v cells were grown in defined condition-heregulin/Activin A/IGF-1/FGF (DC-HAIF) media. The hESCs were starved of growth factors overnight (“Starved”), or starved then pulsed with 10 ng/ml Heregulin (“HRG pulse”). Cell lysates were prepared and examined for phosphorylation of Erbb2 and Erbb3 by RTK blotting. (B) The spots were quantified, normalized against controls, and charted as normalized relative intensity. […] While at a lower overall intensity, a similar pattern was also observed in the starved conditions.
(§2) Cells were maintained in steady state conditions in defined conditioned-heregulin/Activin A/IGF1/FGF (DC-HAIF), were incubated in media minus or starved of growth factors (e.g., no heregulin/Activin A/IGF1/FGF) overnight, or starved and then pulsed about 15 minutes with 10 ng/ml heregulin. Proteome Profiler™ human phospho-RTK antibody arrays (R&D Systems, Cat#ARY001) were used according to the manufacturer's instructions. […] The arrayed antibodies capture the extracellular domains of both phosphorylated and unphosphorylated RTKs, and bound phospho-RTKs were detected with a pan anti-phospho-tyrosine antibody conjugated to horseradish peroxidase (HRP) using chemiluminescence. X-ray film was scanned and spots were quantified using NTH-image (world wide web at rsb.info.nih.gov/nih-image/). […]

Erbb2 = assay: Phospho-RTK antibody array, Erbb2 phosphorylation in BG01 and BG01v cells; type: cell-based, human; conditions: BG01 and BG01v cells starved overnight, then pulsed about 15 minutes with 10 ng/ml heregulin
Protocol: as §1, §2

## COc1cc(/C=C(\C#N)C(N)=O)cc(CSc2nc3ccccc3s2)c1O [AG825, Tyrphostin AG825]
BG01v cells
  growth of BG01v cells: inhibit the growth
ERBB2 (phospho-Y1248); 15 minute pulse, 50 μM AG825 without or with 10 ng/ml HRG1β (lanes 2 and 4)
  autophosphorylation of ERBB2 at Tyrosine-1248: inhibited autophosphorylation; also recorded: inhibition of ERBB2 Y1248 phosphorylation
hESCs
  number of hESCs after treatment compared to DMSO and conditioned media (CM) control: statistically significant decrease
hESCs; Experiment 1, initial cell count 560 × 10^3, CM 1.99 × 10^6, DMSO 2.13 × 10^6, P = 0.005
  cell count: 406.6 × 10^3
hESCs; Experiment 2, initial cell count 853.3 × 10^3, CM 2.77 × 10^6, DMSO 2.54 × 10^6, P = 0.007
  cell count: 433.3 × 10^3
hESCs; hESCs growing in CM
  proliferation of hESCs: significantly inhibited proliferation
Erbb2 tyrosine kinase
  selectivity as inhibitor of the Erbb2 tyrosine kinase: highly selective inhibitor

## CC(C)(C)c1cc(/C=C(\C#N)C(N)=S)cc(C(C)(C)C)c1O [AG879]
BG01v cells
  growth of BG01v cells: inhibit the growth

## COc1cc2ncnc(Nc3ccc(F)c(Cl)c3)c2cc1OCCCN1CCOCC1 [ZD1839]
[1]
  sensitivity of Erbb2Δ16-expressing cells to the drug: low sensitivity

## Cc1cc(O)c2c(c1)C(=O)c1cc(O)cc(O)c1C2=O [emodin]
BG01v cells
  growth of BG01v cells: inhibit the growth
Wild type Erbb2
  activation of wild type Erbb2 transfectants: blocked activation
Erbb2Δ16
  activation of Erbb2Δ16 transfectants: blocked activation

## HRG-β: neuregulin-β, EGF growth factor family member; cleaved ectodomain of neuregulin
Erbb2/4 heterodimers
  pKd: > 9.00
Erbb2/3 heterodimers
  pKd: > 9.00

## HRG: Heregulin-β EGF domain (HRGβ, Peprotech), recombinant growth factor
Erbb3
  phosphorylation of ERBB3: strong phosphorylation
ERBB2 (phospho-Y1248); 15 minute pulse with 10 ng/ml HRG1β (lane 3) or DC-HAIF media (lane 5)
  Erbb2 phosphorylation detected by phospho-Y1248 antibody: increased Erbb2 phosphorylation
Erbb2
  phosphorylation of ERBB2: strong phosphorylation
